Target: T1, human Cot/Tpl2 kinase (Homo sapiens, UniProt P41279)
T1 construct: human Cot/Tpl2 kinase construct encoding residues 30-398; 6His (N); made in house; host or cells: Sf9 insect cells (baculovirus system, BD Biosciences)
Assay: Tpl2/Cot kinase assay, GST-MEK1 phosphorylation detected by ELISA (DELFIA Eu)
Assay type: biochemical
Experimental: Sf9 cells expressing the kinase were lysed in 50 mM NaPhosphate pH=8; 300 mM NaCl; 5 mM imidazole; 0.1 mM EGTA; 25 mM beta-glycerophosphate; 1% TX-100, 1% glycerol; 6 mM beta-mercaptoethanol and protease inhibitors. The lysate was clarified by centrifugation and was loaded onto a Ni-Sepharose column. The column was washed with 50 mM NaPhosphate pH=8; 300 mM NaCl; 15 mM imidazole; 1% glycerol; and 6 mM beta-mercaptoethanol. His-Tpl2 was eluted with 50 mM NaPhosphate pH=8; 300 mM NaCl; 250 mM imidazole; 1% glycerol; and 6 mM beta-mercaptoethanol. The eluted protein was further purified by size exclusion chromatography. Fractions corresponding to monomeric Tpl2 were then used in the assay.
Tpl2/Cot activity was directly assayed using GST-MEK1 as a substrate. GST-MEK1 phosphorylation on serine residues 217 and 221 was detected by ELISA. 0.4 nM Tpl2 was incubated with 35 nM GST-MEK1 in a kinase reaction buffer containing 20 mM MOPS pH=7.2; 50 uM ATP; 20 mM MgCl2; 1 mM DTT; 25 mM β-glycerophosphate; 5 mM EGTA; and 1 mM sodium orthovanadate for 1 h at 30° C. The compounds of the inventions solubilized in 100% DMSO were pre-diluted in assay buffer so that the final concentration of DMSO in the reaction was 1%. The kinase reaction was carried out in 100 ul volume on 96 well plates. The kinase reaction was then stopped with the addition of 100 mM EDTA. […] After a 1 hour incubation at room temperature, the detection plate was washed 4 times with TBST (TBS+0.05% Tween 20) and then incubated for another hour at room temperature with anti phospho-MEK1 antibody (Cell Signaling) 1:1000 in 10 mM MOPS 7.5; 150 mM NaCl; 0.05% Tween 20; 0.1% Gelatin; 0.02% NaN3; and 1% BSA. The detection plate was washed again and incubated for 30 min with DELFIA Europium (Eu) labeled goat anti-rabbit IgG (Perkin-Elmer), 1:4000 in the same buffer used for the primary incubation. After a final wash, Eu detection solution was added to each well and the Eu signal was measured in a Wallac Victor^2 Multilabel Counter. IC50 calculations were preformed using the XLfit software package (IDBS, Guildford, UK).

[1] = Table 1, 0.4 nM Tpl2, 35 nM GST-MEK1, 50 uM ATP, 1 h at 30° C.
[2] = Table 2, additional representative compounds

T1 sequence (P41279 30-398): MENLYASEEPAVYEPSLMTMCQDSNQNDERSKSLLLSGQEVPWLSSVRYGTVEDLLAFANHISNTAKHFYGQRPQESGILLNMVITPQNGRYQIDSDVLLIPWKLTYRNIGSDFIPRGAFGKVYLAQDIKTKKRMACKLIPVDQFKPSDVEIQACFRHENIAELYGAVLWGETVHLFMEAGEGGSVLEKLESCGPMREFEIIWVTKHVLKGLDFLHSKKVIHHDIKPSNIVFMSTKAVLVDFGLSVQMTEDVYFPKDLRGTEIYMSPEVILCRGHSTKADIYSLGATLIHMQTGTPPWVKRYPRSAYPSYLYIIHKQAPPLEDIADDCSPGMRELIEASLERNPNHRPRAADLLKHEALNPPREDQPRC

Compound	IC50 [1]	IC50 [2]
N#Cc1cnc2cnc(NCc3cccnc3)cc2c1Nc1ccc(Cl)c(Cl)c1 [Example 63, 4-[(3,4-dichlorophenyl)amino]-6-[(pyridin-3-ylmethyl)amino]-1,7-naphthyridine-3-carbonitrile]	> 40 µM	–
Cc1ccc(Nc2c(C#N)cnc3cnc(NCCN4CCOCC4)cc23)cc1Br [Example 64, 4-[(3-bromo-4-methylphenyl)amino]-6-[(2-morpholin-4-ylethyl)amino]-1,7-naphthyridine-3-carbonitrile]	> 40 µM	–
N#Cc1cnc2cnc(NCCN3CCOCC3)cc2c1Nc1cc(Cl)cc(Cl)c1 [Example 67, 4-[(3,5-dichlorophenyl)amino]-6-[(2-morpholin-4-ylethyl)amino]-1,7-naphthyridine-3-carbonitrile]	4.2 µM	–
N#Cc1cnc2cnc(N[C@H]3CCc4ccccc43)cc2c1Nc1ccc(F)c(Cl)c1 [Example 72]	1.5 µM	–
CCN1CCC[C@H]1CNc1cc2c(Nc3ccc(F)c(Cl)c3)c(C#N)cnc2cn1 [Example 74]	0.18 µM	–
CCN1CCC[C@@H]1CNc1cc2c(Nc3ccc(F)c(Cl)c3)c(C#N)cnc2cn1 [Example 75]	7 µM	–
CC#Cc1cccc(Nc2c(C#N)cnc3cnc(NCCN4CCOCC4)cc23)c1 [Example 79, 6-(2-morpholinoethylamino)-4-(3-(prop-1-ynyl)phenylamino)-1,7-naphthyridine-3-carbonitrile]	> 10 µM	–
N#Cc1cnc2cnc(NCCN3CCOCC3)cc2c1Nc1cccc(-c2ccco2)c1 [Example 80, 4-(3-(furan-2-yl)phenylamino)-6-(2-morpholinoethylamino)-1,7-naphthyridine-3-carbonitrile]	> 10 µM	–
COC(=O)c1cccc(Nc2c(C#N)cnc3cnc(NCCN4CCOCC4)cc23)c1 [Example 83, Methyl 3-(3-cyano-6-(2-morpholinoethylamino)-1,7-naphthyridin-4-ylamino)benzoate]	> 10 µM	–
CS(=O)(=O)Nc1cccc(Nc2c(C#N)cnc3cnc(NCCN4CCOCC4)cc23)c1 [Example 85, N-(3-(3-cyano-6-(2-morpholinoethylamino)-1,7-naphthyridin-4-ylamino)phenyl)methanesulfonamide]	> 10 µM	–
N#Cc1cnc2cnc(NCCN3CCOCC3)cc2c1Nc1ccc(-c2ccccc2)cc1 [Example 87, 4-(1,1′-biphenyl-4-ylamino)-6-[(2-morpholin-4-ylethyl)amino]-1,7-naphthyridine-3-carbonitrile]	> 40 µM	–
CN(c1ccc(F)c(Cl)c1)c1c(C#N)cnc2cnc(NCCN3CCOCC3)cc12 [Example 89, 4-((3-chloro-4-fluorophenyl)(methyl)amino)-6-(2-morpholinoethylamino)-1,7-naphthyridine-3-carbonitrile]	> 40 µM	–
CCC(C)(C)Nc1cc2c(Nc3ccc(F)c(Cl)c3)c(C#N)cnc2cn1 [Example 91, 4-(3-chloro-4-fluorophenylamino)-6-(tert-pentylamino)-1,7-naphthyridine-3-carbonitrile]	> 40 µM	–
N#Cc1cnc2cnc(Nc3ccc(F)c(Cl)c3)cc2c1NC1CCCC1 [Example 92, 6-(3-chloro-4-fluorophenylamino)-4-(cyclopentylamino)-1,7-naphthyridine-3-carbonitrile]	8 µM	–
N#Cc1cnc2cnc(NC3CCCC3)cc2c1Nc1ccc(F)c(Cl)c1 [Example 94, 4-(3-Chloro-4-fluoro-phenylamino)-6-cyclopentylamino-[1,7]naphthyridine-3-carbonitrile]	7.6 µM	–
CC(C)c1cccc(Nc2c(C#N)cnc3cnc(F)cc23)c1 [Example 97, 6-fluoro-4-[(3-isopropylphenyl)amino]-1,7-naphthyridine-3-carbonitrile]	–	> 40 µM
N#Cc1cnc2cnc(F)cc2c1Nc1ccc(C(F)(F)F)cc1 [Example 100, 6-fluoro-4-{[4-(trifluoromethyl)phenyl]amino}-1,7-naphthyridine-3-carbonitrile]	–	> 40 µM
CC(C)c1ccc(Nc2c(C#N)cnc3cnc(F)cc23)cc1 [Example 101, 6-fluoro-4-[(4-isopropylphenyl)amino]-1,7-naphthyridine-3-carbonitrile]	–	> 40 µM

Further lines, results first:

IC50 [1]	IC50 [2]	Compound
0.012 µM	–	C[C@@H](Nc1cc2c(Nc3ccc(F)c(Cl)c3)c(C#N)cnc2cn1)c1ccccc1 [Example 59, 4-[(3-chloro-4-fluorophenyl)amino]-6-{[(1R)-1-phenylethyl]amino}-1,7-naphthyridine-3-carbonitrile]
2.4 µM	–	N#Cc1cnc2cnc(NC(CN3CCOCC3)c3ccccc3)cc2c1Nc1ccc(F)c(Cl)c1 (centres unmarked) [Example 60, 4-[(3-chloro-4-fluorophenyl)amino]-6-[(2-morpholin-4-yl-1-phenylethyl)amino]-1,7-naphthyridine-3-carbonitrile]
10.5 µM	–	N#Cc1cnc2cnc(NCc3c(N)cccc3F)cc2c1Nc1ccc(F)c(Cl)c1 [Example 61, 6-[(2-amino-6-fluorobenzyl)amino]-4-[(3-chloro-4-fluorophenyl)amino]-1,7-naphthyridine-3-carbonitrile]
6.2 µM	–	Cc1ccc(Nc2c(C#N)cnc3cnc(N[C@H](C)c4ccccc4)cc23)cc1Br [Example 65]
> 40 µM	–	Cc1ccc(Nc2c(C#N)cnc3cnc(NCc4cccnc4)cc23)cc1Br [Example 66, 4-[(3-bromo-4-methylphenyl)amino]-6-[(pyridine-3-ylmethyl)amino]-1,7-naphthyridine-3-carbonitrile]
0.94 µM	–	C[C@@H](Nc1cc2c(Nc3cc(Cl)cc(Cl)c3)c(C#N)cnc2cn1)c1ccccc1 [Example 68]
4.1 µM	–	N#Cc1cnc2cnc(NCc3cccnc3)cc2c1Nc1cc(Cl)cc(Cl)c1 [Example 69, 4-[(3,5-dichlorophenyl)amino]-6-[(pyridin-3-ylmethyl)amino]-1,7-naphthyridine-3-carbonitrile]
1.5 µM	–	N#Cc1cnc2cnc(N[C@@H]3CCCc4ccccc43)cc2c1Nc1ccc(F)c(Cl)c1 [Example 70]
3.9 µM	–	N#Cc1cnc2cnc(N[C@H]3CCCc4ccccc43)cc2c1Nc1ccc(F)c(Cl)c1 [Example 71]
0.43 µM	–	N#Cc1cnc2cnc(N[C@@H]3CCc4ccccc43)cc2c1Nc1ccc(F)c(Cl)c1 [Example 73]
7.1 µM	–	N#Cc1cnc2cnc(NCCN3CCOCC3)cc2c1Nc1cccc(I)c1 [Example 78, 4-(3-iodophenylamino)-6-(2-morpholinoethylamino)-1,7-naphthyridine-3-carbonitrile]
0.27 µM	–	N#Cc1cnc2cnc(NCCN3CCOCC3)cc2c1Nc1cccc([N+](=O)[O-])c1 [Example 81, 6-(2-morpholinoethylamino)-4-(3-nitrophenylamino)-1,7-naphthyridine-3-carbonitrile]
> 10 µM	–	N#Cc1cnc2cnc(NCCN3CCOCC3)cc2c1Nc1cccc(N)c1 [Example 82, 4-(3-aminophenylamino)-6-(2-morpholinoethylamino)-1,7-naphthyridine-3-carbonitrile]
> 10 µM	–	N#Cc1cnc2cnc(NCCN3CCOCC3)cc2c1Nc1cccc(C(=O)O)c1 [Example 84, 3-(3-cyano-6-(2-morpholinoethylamino)-1,7-naphthyridin-4-ylamino)benzoic acid]
> 10 µM	–	N#Cc1cnc2cnc(NCCN3CCOCC3)cc2c1Nc1cccc(C(N)=O)c1 [Example 86, 3-(3-cyano-6-(2-morpholinoethylamino)-1,7-naphthyridin-4-ylamino)benzamide]
7 µM	–	N#Cc1cnc2cnc(NCCN3CCOCC3)cc2c1Nc1ccc([N+](=O)[O-])cc1 [Example 88, 6-(2-morpholinoethylamino)-4-(4-nitrophenylamino)-1,7-naphthyridine-3-carbonitrile]
0.33 µM	–	N#Cc1cnc2cnc(NCc3cccnc3)cc2c1Nc1ccccc1 [Example 95, 4-Phenylamino-6-[(pyridin-3-ylmethyl)-amino]-[1,7]naphthyridine-3-carbonitrile]
–	0.2 µM	COc1ccc(CNc2cc3c(Nc4ccc(F)c(Cl)c4)c(C#N)cnc3cn2)cc1 [Example 96, 4-[(3-chloro-4-fluorophenyl)amino]-6-[(4-methoxybenzyl)amino]-1,7-naphthyridine-3-carbonitrile]
–	> 40 µM	N#Cc1cnc2cnc(F)cc2c1NCc1ccc(F)c(Cl)c1 [Example 98, 4-[(3-chloro-4-fluorobenzyl)amino]-6-fluoro-1,7-naphthyridine-3-carbonitrile]
–	20 µM	N#Cc1cnc2cnc(F)cc2c1Nc1ccc(Oc2ccccc2)cc1 [Example 99, 6-Fluoro-4-(4-phenoxy-phenylamino)-[1,7]naphthyridine-3-carbonitrile]

Reference: patent US20060276498A1 (Wyeth, priority 2005, published 2006)
